According to patent publication US20250115874A1, “Compositions And Methods For Making And Using Atherosclerotic Nanomatrix Vascular Sheets” (UAB RESEARCH FOUNDATION, priority 2023, published 2025):

Tests used:
Assay type in all cases: cell-based, human
[1] = system: cytokine secretion of VSAs; experiment: VSA cytokine assay (ELISA of supernatant)
Procedure: (§1) Experimental: (1) Fabrication of VSA high throughput culture systems: large-scale VSA high throughput culture systems were achieved by fabricating individual VSAs in each well of the 48-well tissue culture plate, following the same method described in Example 4 (FIG. 7A, step 1). (2) Divide the VSAs into two groups. (3) Treatment of VSAs in one group with rosuvastatin (10 uM) or sirolimus (10 nM) by dilution of the stock solution into the culture medium 7 on day 0 (FIG. 7B, step 2). (4) The VSAs, treated or untreated, were culturing in culture medium 7 for 10 days. A fresh culture medium 7 was added to the co-culture system on day 3 and day 7, respectively. (5) ELISA: On day 10, the supernatant from VSAs was collected for ELISA to measure the significant inflammatory cytokine secretion.
as §1, with “systems: the” for “systems:”, “system was” for “systems were”, “curcumin (200” for “rosuvastatin (10”, “colchicine (100” for “sirolimus (10”, “cultured using” for “culturing in”, “measure” for “measure the significant”
as §1, with “systems: the” for “systems:”, “system was” for “systems were”, “free miR-146a (600 nM)” for “rosuvastatin (10 uM)”, “Lip-miR-146a (600” for “sirolimus (10”, “co-cultured” for “culturing in culture medium 7”, “Afresh” for “A fresh”

[2] = system: atherosclerosis-related gene expression of VSAs; experiment: VSA gene assay (qRT-PCR)
Procedure: Experimental: To create a large-scale VSA high throughput culture system, individual VSAs were fabricated in each well of a 48-well tissue culture plate using the method described in Example 4 (FIG. 7A, step 1). The VSAs were then divided into two groups. One group was treated with rosuvastatin (10 uM) and sirolimus (10 nM) by diluting the stock solution into the “culture medium 7” containing monocytes on day 0 (FIG. 7B, step 2). The treated and untreated VSAs were co-cultured for 10 days with fresh culture medium 7 with monocytes added on day 3 and day 7, respectively. On day 10, RNA was extracted using the TRIzol™ reagent (Invitrogen) and purified using the Direct-Zol™ RNA Miniprep Plus kit following the protocol (Zymo Research). EDTA was added before phase separation to bind the calcium and help disintegrate the nanomatrix VSAs. The upper transparent aqueous phase was collected and RNA was suspended in nuclease-free water. The concentration and purity of RNA for each sample were determined using an ND-1000 UV spectrophotometer (Nanodrop). Complementary DNA was synthesized using 50 ng of RNA and reverse transcribed in a 2720 Thermo Cycler (Applied Biosystems) using a Verso cDNA Synthesis Kit (Thermo Fisher) according to the manufacturer's protocol. Samples were prepared in a 96-well PCR plate using the TaqMan Master Mix protocol. Each sample consisted of 2 μL of cDNA solution, 10 μL of 2× master mix, 7 μL of RNA-free water, and 1 μL of gene primer from a TaqMan Gene Expression Assay kit (Applied Biosytems). The PCR plate was run in a LightCycler 480 (Roche Life Science) for the following cycles: pre-incubation at 50° C. for 2 minutes and 95° C. for 10 min; amplification for 45 cycles, at 95° C. for 15 seconds, and 60° C. for 1 minute during each cycle; melting at 95° C. for 5 seconds and 65° C. for 1 minute, and cooling at 40° C. for 30 seconds.
Experimental: (1) Fabrication of VSA high throughput culture systems: the large-scale VSA high throughput culture system was achieved by fabricating individual VSAs in each well of the 48-well tissue culture plate, following the same method described in Example 4 (FIG. 7A, step 1). (2) Divide the VSAs into two groups. (3) Treatment of VSAs in one group with curcumin (200 uM) or colchicine (100 nM) by dilution of the stock solution into the “culture medium 7” containing monocytes on day 0 (FIG. 7B, step 2). (4) The VSAs, treated or untreated, were co-cultured for 10 days. A fresh culture medium 7 with monocytes was added to the co-culture system on day 3 and day 7, respectively. (5) RNA extraction and real-time qRT-PCR: On day 10, before phase separation, EDTA (Ethylenediaminetetraacetic acid) was added to bind the calcium and help disintegrate the nanomatrix VSAs. For phase separation, TRIzol™ reagent was added to the samples (>9 times of the sample volume) and incubated for 5 min. Then chloroform was added, mixed by shaking, and centrifuged (11,600 g, 15 min, 4° C.) to obtain phase separation. The upper transparent aqueous phase was collected and purified using the Direct-Zol™ RNA Miniprep Plus kit following the protocol. RNA was suspended in nuclease-free water, and an ND-1000 UV spectrophotometer was used to quantify the concentration and purity of RNA for each sample. Complementary DNA was then synthesized using 50 ng of RNA, which was reverse transcribed in a 2720 Thermo Cycler (Applied Biosystems) using a Verso cDNA Synthesis Kit according to the manufacturer's protocol. Samples were prepared in a 96-well PCR plate using the TaqMan Master Mix protocol. Each sample consisted of 2 μL of cDNA solution, 10 μL of 2× master mix, 7 μL of RNA-free water, and 1 μL of gene primer from a TaqMan Gene Expression Assay kit. […]

[3] = system: cytokine secretion of VSAs; experiment: VSA cytokine assay (ELISA of supernatant); remark: listed apart in the source
[4] = system: foam cell formation on the VSA; experiment: VSA foam cell assay (BODIPY staining); conditions: for foam cell formation (BODIPY): day 10, vs. control 100%; for foam cell generation (BODIPY): day 10, vs. control
Procedure: Experimental: (1) Fabrication of large-scale VSA high throughput culture systems: Individual VSAs were fabricated in each well of a 48-well tissue culture plate, following the method described in Example 4 (FIG. 7A, step 1), to create a high throughput culture system for testing drug effects on atherosclerosis. (2) The VSAs were divided into two groups: treated and untreated. (3) The treated group was treated with rosuvastatin (10 uM) or sirolimus (10 nM) by dilution of the stock solution into the “culture medium 7” on day 0 (FIG. 7B, step 2). (4) The VSAs, both treated and untreated, were co-cultured for 10 days with a fresh culture medium 7 with monocytes added on day 3 and day 7, respectively. (5) BODIPY staining was used to quantify foam cell formation: On day 10, a 10 mM BODIPY stock solution was prepared by dissolving in DMSO and stored at −20° C. Before the experiment, a 100 times diluted working solution was prepared from the stock solution using PBS. The VSAs were gently washed with PBS, then BODIPY was added, incubated in the dark for 30 min, imaged immediately using a microscope, and quantified at ex/em 485 nm/520 nm.
Experimental: (1) Fabrication of VSA high throughput culture systems: the large-scale VSA high throughput culture system was achieved by fabricating individual VSAs in each well of the 48-well tissue culture plate, following the same method described in Example 4 (FIG. 7A, step 1). (2) Divide the VSAs into two groups. (3) Treatment of VSAs in one group with curcumin (200 uM) or colchicine (100 nM) by dilution of the stock solution into the “culture medium 7” containing monocytes on day 0 (FIG. 7B, step 2). (4) The VSAs, treated or untreated, were co-cultured for 10 days. A fresh culture medium 7 was added to the co-culture system on day 3 and day 7, respectively. (5) BODIPY staining: On day 10, 10 mM BODIPY stock solution was prepared by dissolving in DMSO and stored at −20° C. Before the experiment, 100 times diluted working solution was prepared from stock solution using PBS. Then, the VSAs treated or untreated with curcumin (200 uM), and colchicine (100 nM) were gently washed with PBS, then BODIPY was added and incubated in the dark.
Experimental: (1) Fabrication of VSA high throughput culture systems: the large-scale VSA high throughput culture system was achieved by fabricating individual VSAs in each well of the 48-well tissue culture plate, following the same method described in Example 4 (FIG. 7A, step 1). (2) Divide the VSAs into two groups. (3) Treatment of VSAs in one group with free miR-146a (600 nM) by dilution of the stock solution into the culture medium 7 on day 0 (FIG. 7B, step 2). (4) The VSAs, treated or untreated, were co-cultured for 10 days. […]

[5] = rosuvastatin 10 uM, day 10, vs. control
[6] = rosuvastatin 10 uM, day 10, compared to the control
[7] = curcumin 200 uM, day 10, vs. control
[8] = sirolimus 10 nM, day 10, of the control group
[9] = sirolimus 10 nM, day 10, relative to the control
[10] = colchicine 100 nM, day 10, vs. control

In the case of `CC(C)c1nc(N(C)S(C)(=O)=O)nc(-c2ccc(F)cc2)c1/C=C/[C@@H](O)C[C@@H](O)CC(=O)O` [rosuvastatin], the IFN-γ production [1, 5] was 44.03±3.20%, the IL-1α production [1, 5] was 66.78±6.52% and the IL-6 production [1, 5] was 71.50±4.34%. The TNF-α production [1, 5] was 39.69±5.53%, the MMP-2 gene expression [2, 6] was 4.46±1.75% and the VEGF-A gene expression [2, 6] was “significantly lower”. The IL-6 gene expression ([2]; rosuvastatin 10 uM, day 10, of control) was 5.20±0.38%, the COL17A1 gene expression [2, 5] was 127.03±35.49 fold and the PECAM-1 gene expression [2, 5] was 146.76±44.63 fold. For the same compound, the IL-10 secretion ([3]; rosuvastatin 10 uM, day 10, compared with the control) was 2.10±0.50 fold, the IL-8 production [3, 5] was 48.64±6.17% and the “foam cell formation (BODIPY)” value ([4]; rosuvastatin 10 uM) was 50.77±8.32%.
In the case of `COc1cc(/C=C/C(=O)CC(=O)/C=C/c2ccc(O)c(OC)c2)ccc1O` [curcumin], the IL-1α production [1, 7] was 80.58±4.91%, the IL-10 production [1, 7] was 2.10±0.29 fold and the MMP-2 gene expression [2, 7] was 39.22±7.14%. It also gave a PECAM-1 gene expression [2, 7] of 29.71±5.68%, a VEGF-A gene expression [2, 7] of 38.01±5.68% and an IL-8 production [3, 7] of 40.90±5.72%. The MCP-1 production [3, 7] was 76.87±3.35% and the “foam cell generation (BODIPY)” value ([4]; curcumin 200 uM) was 31.23±5.68%.
Compound `CO[C@H]1C[C@@H]2CC[C@@H](C)[C@@](O)(O2)C(=O)C(=O)N2CCCC[C@H]2C(=O)O[C@H]([C@H](C)C[C@@H]2CC[C@@H](O)[C@H](OC)C2)CC(=O)[C@H](C)/C=C(\C)[C@@H](O)[C@@H](OC)C(=O)[C@H](C)C[C@H](C)/C=C/C=C/C=C/1C` [sirolimus] has an IFN-γ production [3, 8] of 43.64±17.04%, an MCP-1 production [3, 8] of 22.76±2.56% and a TNF-α production [3, 8] of 40.67±6.42%. The IL-4 secretion [3, 9] was 6.42±3.59 fold, the IL-13 secretion [3, 9] was 1.67±0.59 fold and the “foam cell formation (BODIPY)” value ([4]; sirolimus 10 nM) was 42.73±10.62%.
`COc1cc2c(c(OC)c1OC)-c1ccc(OC)c(=O)cc1[C@@H](NC(C)=O)CC2` [colchicine] gave an IL-1α production ([1]; colchicine 100 nM, day 10) of 71.31±5.84%, an IL-4 production [1, 10] of 1.39±0.14 fold and an IL-8 production [1, 10] of 42.57±1.80%. The COL3A1 gene expression [2, 10] was 8.93±1.30%, the MMP-2 gene expression [2, 10] was 6.36±1.44% and the PECAM-1 gene expression [2, 10] was 3.35±0.68 fold. It also gave an IFN-γ production [3, 10] of 61.95±7.79%, an MCP-1 production [3, 10] of 26.31±1.77% and a TNF-α production [3, 10] of 53.16±7.92%. For the same compound, the “foam cell generation (BODIPY)” value ([4]; colchicine 100 nM) was 50.86±4.57%.
